Literature values as cited in patent publication US8821944B1, “Polymorph compositions, methods of making, and uses thereof” (Edge Therapeutics, Inc., priority 2013, dated 2014).

What was measured:
[1] = at +25° C. and +37° C.
[2] = at +25° C. and +37° C.; remark: listed apart in the source

Q: With `COCCOC(=O)C1=C(C)NC(C)=C(C(=O)OC(C)C)C1c1cccc([N+](=O)[O-])c1` (centres unmarked) [Form II] as the molecule, how does the “solubility compared to Form I” value [1] read?
A: lower solubility

Q: And the “stability compared to Form I” value [2]?
A: higher stability
